Source: patent publication US10766869B2, “Triazoles for the treatment of demyelinating dieases” (Vertex Pharmaceuticals Incorporated, priority 2015, dated 2020)

Test system: primary rat mixed cortical cells
Test: In vitro myelination assay (MBP positive myelin strands, fold myelin pixels above background)
Format: cell-based
Details: Rattus norvegicus, read-out: Fold myelin pixels above background relative to baseline of no added compound; for fold induction at 1 µM: 1.0 μM compound; for fold induction at 10 µM: 10.0 μM compound
Procedure, shortened: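 Fourteen-day treatment of primary P1 rat mixed cortical cultures, re-dosed at days 6 and 10, at 1.0 μM and 10.0 μM. MBP immunofluorescence was imaged at 10× and myelin strands quantified by software, normalised to untreated wells as fold above background.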

Cc1cc(Nc2ncn(-c3cc(F)cc(F)c3)n2)cc(NC2CC(N3CCOCC3)C2)c1 (stereo not drawn) [Compound 797, N3-[1-(3,5-difluorophenyl)-1,2,4-triazol-3-yl]-5-methyl-N1-(3-morpholinocyclobutyl)benzene-1,3-diamine]
fold induction at 1 µM: 1 to 10 | fold induction at 10 µM: ≤ 1

Cc1cc(C#CC2CC2)cc(Nc2ncn(-c3cc(F)cc(F)c3)n2)c1 [Compound 798, N-[3-(2-cyclopropylethynyl)-5-methyl-phenyl]-1-(3,5-difluorophenyl)-1,2,4-triazol-3-amine]
fold induction at 1 µM: 1 to 10 | fold induction at 10 µM: 1 to 10

Cc1cc(Nc2ncn(-c3ccc(F)c(F)c3)n2)cc(NC2CC(N3CCOCC3)C2)c1 (stereo not drawn) [Compound 799, N3-[1-(3,4-difluorophenyl)-1,2,4-triazol-3-yl]-5-methyl-N1-(3-morpholinocyclobutyl)benzene-1,3-diamine]
fold induction at 1 µM: 10 to 100 | fold induction at 10 µM: ≤ 1

Cc1cc(Nc2ncn(-c3cc(F)cc(F)c3)n2)nc(C2CCN(C3COC3)CC2)c1 [Compound 801, N-[1-(3,5-difluorophenyl)-1,2,4-triazol-3-yl]-4-methyl-6-[1-(oxetan-3-yl)-4-piperidyl]pyridin-2-amine]
fold induction at 1 µM: 1 to 10 | fold induction at 10 µM: 1 to 10

CCc1cc(Nc2ncn(-c3ccc(F)cc3)n2)cc(N2CCN(C3(C)COC3)CC2)c1 [Compound 802, N-[3-ethyl-5-[4-(3-methyloxetan-3-yl)piperazin-1-yl]phenyl]-1-(4-fluorophenyl)-1,2,4-triazol-3-amine]
fold induction at 1 µM: 10 to 100 | fold induction at 10 µM: ≤ 1

Fc1cc(Nc2ncn(-c3ccc(F)c(F)c3)n2)cc(N2CCN(C3COC3)CC2)c1 [Compound 803, 1-(3,4-difluorophenyl)-N-[3-fluoro-5-[4-(oxetan-3-yl)piperazin-1-yl]phenyl]-1,2,4-triazol-3-amine]
fold induction at 1 µM: 10 to 100 | fold induction at 10 µM: ≤ 1

Fc1cc(F)cc(-n2cnc(Nc3cc(C(F)F)cc(N4CC(N5CCOCC5)C4)c3)n2)c1 [Compound 804, N-[3-(difluoromethyl)-5-(3-morpholinoazetidin-1-yl)phenyl]-1-(3,5-difluorophenyl)-1,2,4-triazol-3-amine]
fold induction at 1 µM: 10 to 100 | fold induction at 10 µM: ≤ 1

CC(=O)N1CCC(Oc2cc(C)cc(Nc3ncn(-c4cc(F)cc(F)c4)n3)c2)CC1 [Compound 805, 1-[4-[3-[[1-(3,5-difluorophenyl)-1,2,4-triazol-3-yl]amino]-5-methyl-phenoxy]-1-piperidyl]ethanone]
fold induction at 1 µM: 10 to 100 | fold induction at 10 µM: 1 to 10

Fc1ccc(-n2cnc(Nc3cc(C(F)F)cc(N4CCN(C5COC5)CC4)n3)n2)cc1 [Compound 806, 4-(difluoromethyl)-N-[1-(4-fluorophenyl)-1,2,4-triazol-3-yl]-6-[4-(oxetan-3-yl)piperazin-1-yl]pyridin-2-amine]
fold induction at 1 µM: 1 to 10 | fold induction at 10 µM: ≤ 1

COCC1CCN(c2cc(C(F)(F)F)cc(Nc3ncn(-c4cccc(C(F)F)c4)n3)n2)CC1 [Compound 807, N-[1-[3-(difluoromethyl)phenyl]-1,2,4-triazol-3-yl]-6-[4-(methoxymethyl)-1-piperidyl]-4-(trifluoromethyl)pyridin-2-amine]
fold induction at 1 µM: 1 to 10 | fold induction at 10 µM: 1 to 10

Cc1cc(Nc2ncn(-c3cc(F)cc(F)c3)n2)cc(N2CC(N3CCCOCC3)C2)c1 [Compound 808, 1-(3,5-difluorophenyl)-N-[3-methyl-5-[3-(1,4-oxazepan-4-yl)azetidin-1-yl]phenyl]-1,2,4-triazol-3-amine]
fold induction at 1 µM: 10 to 100 | fold induction at 10 µM: ≤ 1

Cc1cc(Nc2ncn(-c3cc(F)cc(F)c3)n2)cc(N2CCN(CCN(C)C)CC2)c1 [Compound 809, 1-(3,5-difluorophenyl)-N-[3-[4-[2-(dimethylamino)ethyl]piperazin-1-yl]-5-methyl-phenyl]-1,2,4-triazol-3-amine]
fold induction at 1 µM: 1 to 10 | fold induction at 10 µM: ≤ 1

Cc1cc(Nc2ncn(-c3cc(F)cc(F)c3)n2)c(F)c(NC2CCOCC2)c1 [Compound 810, N3-[1-(3,5-difluorophenyl)-1,2,4-triazol-3-yl]-2-fluoro-5-methyl-N1-tetrahydropyran-4-yl-benzene-1,3-diamine]
fold induction at 1 µM: 1 to 10 | fold induction at 10 µM: 1 to 10

Cc1c(Nc2ncn(-c3ccccn3)n2)cc(N2CC(N3CCOCC3)C2)cc1OC(C)C [Compound 811, N-[3-isopropoxy-2-methyl-5-(3-morpholinoazetidin-1-yl)phenyl]-1-(2-pyridyl)-1,2,4-triazol-3-amine]
fold induction at 1 µM: 1 to 10 | fold induction at 10 µM: 10 to 100

Cc1cc(Nc2ncn(-c3cc(F)cc(F)c3)n2)cc(OCCN2CCOCC2)c1 [Compound 812, 1-(3,5-difluorophenyl)-N-[3-methyl-5-(2-morpholinoethoxy)phenyl]-1,2,4-triazol-3-amine]
fold induction at 1 µM: 10 to 100 | fold induction at 10 µM: 10 to 100

CC(=O)N[C@H]1C[C@H](Oc2cc(C)cc(Nc3ncn(-c4cc(F)cc(F)c4)n3)c2)C1 [Compound 813, N-[3-[3-[[1-(3,5-difluorophenyl)-1,2,4-triazol-3-yl]amino]-5-methyl-phenoxy]cyclobutyl]acetamide]
fold induction at 1 µM: 10 to 100 | fold induction at 10 µM: 1 to 10

Cc1cc(Nc2ncn(-c3cc(F)cc(F)c3)n2)cc(N2CCC3(CCOC3)CC2)c1 [Compound 814, 1-(3,5-difluorophenyl)-N-[3-methyl-5-(2-oxa-8-azaspiro[4.5]decan-8-yl)phenyl]-1,2,4-triazol-3-amine]
fold induction at 1 µM: 10 to 100 | fold induction at 10 µM: 1 to 10

Cc1cc(Nc2ncn(-c3cc(F)cc(F)c3)n2)nc(N2CCCC(CO)C2)c1 (stereo not drawn) [Compound 815, [1-[6-[[1-(3,5-difluorophenyl)-1,2,4-triazol-3-yl]amino]-4-methyl-2-pyridyl]-3-piperidyl]methanol]
fold induction at 1 µM: 1 to 10 | fold induction at 10 µM: 10 to 100

COCCNC1CN(c2cc(C)cc(Nc3ncn(-c4cc(F)cc(F)c4)n3)c2)C1 [Compound 816, 1-(3,5-difluorophenyl)-N-[3-[3-(2-methoxyethylamino)azetidin-1-yl]-5-methyl-phenyl]-1,2,4-triazol-3-amine]
fold induction at 1 µM: 1 to 10 | fold induction at 10 µM: 1 to 10

CCN(CC)C(=O)C1CN(c2cc(C)cc(Nc3ncn(-c4cc(F)cc(F)c4)n3)c2)C1 [Compound 817, 1-[3-[[1-(3,5-difluorophenyl)-1,2,4-triazol-3-yl]amino]-5-methyl-phenyl]-N,N-diethyl-azetidine-3-carboxamide]
fold induction at 1 µM: 10 to 100 | fold induction at 10 µM: 10 to 100

Cc1cc(Nc2ncn(-c3cnccn3)n2)cc(N2CCCN(C3COC3)CC2)c1 [Compound 818, N-[3-methyl-5-[4-(oxetan-3-yl)-1,4-diazepan-1-yl]phenyl]-1-pyrazin-2-yl-1,2,4-triazol-3-amine]
fold induction at 1 µM: 10 to 100 | fold induction at 10 µM: 100 to 1000

Fc1cc(-n2cnc(Nc3cc(Cl)cc(N4CC(N5CCOCC5)C4)c3)n2)ccn1 [Compound 819, N-[3-chloro-5-(3-morpholinoazetidin-1-yl)phenyl]-1-(2-fluoro-4-pyridyl)-1,2,4-triazol-3-amine]
fold induction at 1 µM: 10 to 100 | fold induction at 10 µM: 1 to 10

Cc1cc(Nc2ncn(-c3cc(F)cc(F)c3)n2)c(C)c(N2CC(N3CCOCC3)C2)c1 [Compound 820, 1-(3,5-difluorophenyl)-N-[2,5-dimethyl-3-(3-morpholinoazetidin-1-yl)phenyl]-1,2,4-triazol-3-amine]
fold induction at 1 µM: 1 to 10 | fold induction at 10 µM: 10 to 100

Cc1cc(Nc2ncn(-c3cc(F)cc(F)c3)n2)nc(N2CC(C#N)C2)c1 [Compound 821, 1-[6-[[1-(3,5-difluorophenyl)-1,2,4-triazol-3-yl]amino]-4-methyl-2-pyridyl]azetidine-3-carbonitrile]
fold induction at 1 µM: ≤ 1 | fold induction at 10 µM: 10 to 100

Cc1cc(Nc2ncn(-c3cc(F)cc(F)c3)n2)cc(N2C[C@@H]3C[C@H]2CO3)c1 [Compound 822, 1-(3,5-difluorophenyl)-N-[3-methyl-5-[(1S,4S)-2-oxa-5-azabicyclo[2.2.1]heptan-5-yl]phenyl]-1,2,4-triazol-3-amine]
fold induction at 1 µM: 10 to 100 | fold induction at 10 µM: ≤ 1

CC1(N2CCN(c3cc(C(F)F)cc(Nc4ncn(-c5cccc(F)c5)n4)n3)CC2)COC1 [Compound 823, 4-(difluoromethyl)-N-[1-(3-fluorophenyl)-1,2,4-triazol-3-yl]-6-[4-(3-methyloxetan-3-yl)piperazin-1-yl]pyridin-2-amine]
fold induction at 1 µM: 10 to 100 | fold induction at 10 µM: 10 to 100

COCCN(C)C(=O)C1CN(c2cc(C)cc(Nc3ncn(-c4cc(F)cc(F)c4)n3)c2)C1 [Compound 824, 1-[3-[[1-(3,5-difluorophenyl)-1,2,4-triazol-3-yl]amino]-5-methyl-phenyl]-N-(2-methoxyethyl)-N-methyl-azetidine-3-carboxamide]
fold induction at 1 µM: 10 to 100 | fold induction at 10 µM: 1 to 10

Cc1cc(Nc2ncn(-c3cnccn3)n2)cc(N2CC(N3CCCOCC3)C2)c1 [Compound 825, N-[3-methyl-5-[3-(1,4-oxazepan-4-yl)azetidin-1-yl]phenyl]-1-pyrazin-2-yl-1,2,4-triazol-3-amine]
fold induction at 1 µM: 10 to 100 | fold induction at 10 µM: 10 to 100

Fc1cccc(-n2cnc(Nc3cc(Cl)cc(N4CC(N5CCOCC5)C4)c3)n2)c1 [Compound 827, N-[3-chloro-5-(3-morpholinoazetidin-1-yl)phenyl]-1-(3-fluorophenyl)-1,2,4-triazol-3-amine]
fold induction at 1 µM: 10 to 100 | fold induction at 10 µM: 1 to 10

Cc1cc(Nc2ccn(C)n2)cc(Nc2ncn(-c3ccccc3)n2)c1 [Compound 828, 5-methyl-N3-(1-methylpyrazol-3-yl)-N1-(1-phenyl-1,2,4-triazol-3-yl)benzene-1,3-diamine]
fold induction at 1 µM: 1 to 10 | fold induction at 10 µM: ≤ 1
